This is an account of results in the supplement of paper PMC12420376.

The subject of one assay is KURAMOCHI
Briefly: drug sensitivity score (DSS2) on cancer cell count; higher = more sensitive; extreme values may be limits of the assay. The following applies: 72 h. In outline:
(§1)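 Ovarian cancer cells were grown alone or in 1:1 direct co-culture with lung or skin fibroblasts. They were plated onto 384-well plates pre-spotted acoustically with 528 approved and investigational compounds at 5 concentrations, then treated for 72 h. Cells were fixed, immunostained for CK8/18 with Hoechst, and imaged at 10× (4 fields) to count cancer cells. A drug sensitivity score (DSS2) was derived in Breeze from 4-parameter logistic fits, with screen quality checked by Z'.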

A further assay deals with OVCAR8. Described as above. The following applies: 72 h. In outline: as §1
Where [1] appears, read: co-cultured fibroblast: BJHTERT.
The mark [2] stands for this setting: co-cultured fibroblast: none (monoculture).

Structures are written as SMILES.

Take `CCN(c1cc(-c2ccc(CN3CCOCC3)cc2)cc(C(=O)NCc2c(C)cc(C)[nH]c2=O)c1C)C1CCOCC1` [Tazemetostat]: the drug sensitivity score with KURAMOCHI (setting [1]), with KURAMOCHI (co-cultured fibroblast: WI38), in the assay on KURAMOCHI (setting [2]), with OVCAR8 (setting [1]), in the assay on OVCAR8 (co-cultured fibroblast: WI38) and in the assay with OVCAR8 (setting [2]) was 0 DSS each time.
With `Oc1ccc2c(c1)CC[C@H](c1ccccc1)[C@@H]2c1ccc(OCCN2CCCC2)cc1` [Lasofoxifene], the drug sensitivity score in the assay with KURAMOCHI (setting [1]) came out at 0 DSS; in the assay with KURAMOCHI (co-cultured fibroblast: WI38) it was 0 DSS; in the assay with KURAMOCHI (setting [2]), 0 DSS; in the assay on OVCAR8 (setting [1]), 0 DSS; in the assay on OVCAR8 (co-cultured fibroblast: WI38) it was 5.5 DSS; in the assay on OVCAR8 (setting [2]) it was 0 DSS.
For the compound `O=C(Nc1cccc(NC(=O)c2cccc(O)c2O)c1)c1cccc(O)c1O` [MST-312], the drug sensitivity score is 12 DSS with KURAMOCHI (setting [1]); 9.8 DSS in the assay with KURAMOCHI (co-cultured fibroblast: WI38); 15.1 DSS in the assay on KURAMOCHI (setting [2]); 10.9 DSS in the assay on OVCAR8 (setting [1]); 15.4 DSS in the assay with OVCAR8 (co-cultured fibroblast: WI38); 18.1 DSS in the assay on OVCAR8 (setting [2]).
Turning to `Cc1ccc(NC(=O)c2ccc(CN3CC[C@H](N(C)C)C3)c(C(F)(F)F)c2)cc1Nc1nccc(-c2cncnc2)n1` [Bafetinib], the drug sensitivity score with KURAMOCHI (setting [1]) was 0.1 DSS; with KURAMOCHI (co-cultured fibroblast: WI38), 0 DSS; in the assay with KURAMOCHI (setting [2]), 0 DSS; in the assay on OVCAR8 (setting [1]), 0 DSS; with OVCAR8 (co-cultured fibroblast: WI38), 0 DSS; in the assay on OVCAR8 (setting [2]), 0 DSS.
Turning to `CC(C)(C)NC(=O)[C@H]1CC[C@H]2[C@@H]3CC[C@H]4NC(=O)C=C[C@]4(C)[C@H]3CC[C@]12C` [Finasteride], the drug sensitivity score turned out to be 0 DSS with KURAMOCHI (setting [1]); 0 DSS in the assay with KURAMOCHI (co-cultured fibroblast: WI38); 0 DSS in the assay with KURAMOCHI (setting [2]); 2.1 DSS in the assay with OVCAR8 (setting [1]); 0 DSS in the assay with OVCAR8 (co-cultured fibroblast: WI38); 0 DSS with OVCAR8 (setting [2]).
As to `CCOC(=O)C1=CCCC[C@H]1S(=O)(=O)Nc1ccc(F)cc1Cl` [Resatorvid], the drug sensitivity score with KURAMOCHI (setting [1]) is 0 DSS; with KURAMOCHI (co-cultured fibroblast: WI38), 0.2 DSS; with KURAMOCHI (setting [2]), 0 DSS; in the assay with OVCAR8 (setting [1]) it was 0 DSS; with OVCAR8 (co-cultured fibroblast: WI38), 0 DSS; in the assay with OVCAR8 (setting [2]) it was 0 DSS.
Take `NC[C@@](O)(c1ccc(Cl)cc1)c1ccc(-c2cn[nH]c2)cc1`: the drug sensitivity score stood at 0 DSS in the assay with KURAMOCHI (setting [1]); 4.2 DSS in the assay on KURAMOCHI (co-cultured fibroblast: WI38); 3 DSS in the assay with KURAMOCHI (setting [2]); 3.3 DSS in the assay on OVCAR8 (setting [1]); 10.7 DSS in the assay on OVCAR8 (co-cultured fibroblast: WI38); 5.1 DSS in the assay on OVCAR8 (setting [2]).
`C[C@@H]1CN(CC(=O)Nc2ccc3c(c2)Cc2cccc(-c4cc(=O)cc(N5CCOCC5)o4)c2S3)C[C@H](C)O1`: the drug sensitivity score in the assay on KURAMOCHI (setting [1]) is 3.2 DSS; in the assay with KURAMOCHI (co-cultured fibroblast: WI38), 0.2 DSS; in the assay on KURAMOCHI (setting [2]), 2.5 DSS; with OVCAR8 (setting [1]) it was 7.6 DSS; in the assay with OVCAR8 (co-cultured fibroblast: WI38) it was 5.6 DSS; in the assay on OVCAR8 (setting [2]) it was 0.7 DSS.
`OC[C@H]1O[C@@H](n2cnc3c2N=CNC[C@H]3O)C[C@@H]1O` [Pentostatin]: the drug sensitivity score was determined as 0 DSS in the assay with KURAMOCHI (setting [1]); 0 DSS in the assay on KURAMOCHI (co-cultured fibroblast: WI38); 0 DSS in the assay on KURAMOCHI (setting [2]); 0 DSS in the assay on OVCAR8 (setting [1]); 2.8 DSS in the assay with OVCAR8 (co-cultured fibroblast: WI38); 0 DSS in the assay with OVCAR8 (setting [2]).
Turning to `C=CCc1cccc(/C=N/NC(=O)CN2CCN(Cc3ccccc3)CC2)c1O` [PAC-1], the drug sensitivity score in the assay with KURAMOCHI (setting [1]) was 2.7 DSS; in the assay with KURAMOCHI (co-cultured fibroblast: WI38) it was 3.3 DSS; with KURAMOCHI (setting [2]) it was 4.9 DSS; with OVCAR8 (setting [1]), 7.4 DSS; in the assay on OVCAR8 (co-cultured fibroblast: WI38), 1.5 DSS; in the assay on OVCAR8 (setting [2]) it was 4.9 DSS.
Consider `Clc1ccc(C(c2ccccc2Cl)C(Cl)Cl)cc1` (centres undefined) [Mitotane], for which the drug sensitivity score in the assay with KURAMOCHI (setting [1]), with KURAMOCHI (co-cultured fibroblast: WI38), in the assay with KURAMOCHI (setting [2]), with OVCAR8 (setting [1]), in the assay on OVCAR8 (co-cultured fibroblast: WI38) and in the assay on OVCAR8 (setting [2]) was 0 DSS in each case.
Regarding `CNC(=O)c1ccccc1Nc1nc(Nc2ccc3c(c2OC)CCC[C@H](N2CCN(CCO)CC2)C3)ncc1Cl`, the drug sensitivity score came out at 6.7 DSS with KURAMOCHI (setting [1]); 2.2 DSS in the assay with KURAMOCHI (co-cultured fibroblast: WI38); 9.5 DSS with KURAMOCHI (setting [2]); 7.3 DSS with OVCAR8 (setting [1]); 2.2 DSS in the assay on OVCAR8 (co-cultured fibroblast: WI38); 11.1 DSS with OVCAR8 (setting [2]).
Turning to `CCc1nc(C(N)=O)c(Nc2ccc(N3CCC(N4CCN(C)CC4)CC3)c(OC)c2)nc1NC1CCOCC1` [Gilteritinib], the drug sensitivity score in the assay with KURAMOCHI (setting [1]) was 0.4 DSS; in the assay with KURAMOCHI (co-cultured fibroblast: WI38), 0 DSS; with KURAMOCHI (setting [2]), 0 DSS; with OVCAR8 (setting [1]), 1.5 DSS; with OVCAR8 (co-cultured fibroblast: WI38), 0 DSS; in the assay on OVCAR8 (setting [2]) it was 0 DSS.
On to `C[C@@H](Nc1cc(F)cc(F)c1)c1cc(C(=O)N(C)C)cc2c(=O)cc(N3CCOCC3)oc12` [AZD-8186], for which the drug sensitivity score in the assay on KURAMOCHI (setting [1]) amounted to 8.7 DSS; in the assay on KURAMOCHI (co-cultured fibroblast: WI38), 3.8 DSS; in the assay on KURAMOCHI (setting [2]) it was 6.5 DSS; in the assay with OVCAR8 (setting [1]), 0 DSS; with OVCAR8 (co-cultured fibroblast: WI38) it was 0 DSS; in the assay with OVCAR8 (setting [2]), 0.8 DSS.
